Assay results reported in patent US12240862B2, “Inhibitors of peptidylarginine deiminases” (Gilead Sciences, Inc., priority 2020, dated 2025).

Biological target: T1, human PAD4 (Homo sapiens, UniProt Q9UM07)
T1 construct: human PAD4 (NM_012387), A2P663, was PCR amplified; His-SUMO (N, cleaved yes); made in house; host or cells: E. coli BL21(DE3)
Assay: In vitro PAD4 BAEE biochemical assay
Conditions: human PAD4, BAEE substrate; 5 nM PAD4, 2 mM calcium chloride, 3 mM BAEE; geometric mean of multiple experiments
How it was run: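 Tag-free recombinant hPAD4 (5 nM), 2 mM CaCl2, 3 mM BAEE, 50 mM MOPS pH 7.6, 2 mM DTT; 30 min compound preincubation, 2 h reaction, all 25 °C. EDTA quench; ammonia read via o-phthalaldehyde amine coupling, 1 h.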

T1 sequence (Q9UM07 2-663): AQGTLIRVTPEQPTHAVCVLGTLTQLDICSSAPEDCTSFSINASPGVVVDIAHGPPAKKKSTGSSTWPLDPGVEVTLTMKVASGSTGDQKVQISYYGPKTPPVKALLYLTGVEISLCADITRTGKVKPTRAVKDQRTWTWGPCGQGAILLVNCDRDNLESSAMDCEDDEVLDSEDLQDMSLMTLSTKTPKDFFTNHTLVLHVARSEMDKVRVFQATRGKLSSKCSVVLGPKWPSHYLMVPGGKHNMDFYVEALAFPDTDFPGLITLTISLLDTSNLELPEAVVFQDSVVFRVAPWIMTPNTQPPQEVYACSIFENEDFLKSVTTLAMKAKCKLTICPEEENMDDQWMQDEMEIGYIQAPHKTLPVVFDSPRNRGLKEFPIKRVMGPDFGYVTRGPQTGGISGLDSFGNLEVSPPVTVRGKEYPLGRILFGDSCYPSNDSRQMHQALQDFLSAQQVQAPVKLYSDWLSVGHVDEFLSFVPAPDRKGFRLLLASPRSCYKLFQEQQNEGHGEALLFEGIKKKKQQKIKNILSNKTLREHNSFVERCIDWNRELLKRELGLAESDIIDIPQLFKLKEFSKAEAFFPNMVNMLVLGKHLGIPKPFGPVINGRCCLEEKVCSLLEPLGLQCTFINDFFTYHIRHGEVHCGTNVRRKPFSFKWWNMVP

SMILES	IC50 [nM]
COc1cc(C(=O)N2CCC[C@@H](N)C2)cc2nc(-c3cc4ccc([C@@H](C)N(C)C(=O)c5ccccc5)nc4n3CC3CC3)c(C)n12 [Example 186, ~{N}-[(1~{R})-1-[2-[7-[(3~{R})-3-aminopiperidine-1-carbonyl]-5-methoxy-3-methylimidazo [1,2-a]pyridin-2-yl]-1-(cyclopropylmethyl)pyrrolo [2,3-b]pyridin-6-yl]ethyl]-~{N}-methylbenzamide]	274
COc1cc(C(=O)N2[C@H]3CC[C@@H]2[C@H](N)C3)cc2nc(-c3cc4ccc([C@H](NC(=O)C5(C#N)CC5)C(F)(F)F)nc4n3CC3CC3)c(C)n12 [Example 191, ~{N}-[(1~{S})-1-[2-[7-[(1~{R},2~{R},4~{S})-2-amino-7-azabicyclo[2.2.1]heptane-7-carbonyl]-5-methoxy-3-methylimidazo [1,2-a]pyridin-2-yl]-1-(cyclopropylmethyl)pyrrolo [2,3-b]pyridin-6-yl]-2,2,2-trifluoroethyl]-1-cyanocyclopropane-1-carboxamide]	708
COc1cc(C(=O)N2[C@H]3CC[C@@H]2[C@H](N)C3)cc2nc(-c3cc4ccc(C(NC(=O)C(C)(C)C)C(F)(F)F)nc4n3CC3CC3)c(C)n12 (stereo partly drawn) [Example 192, ~{N}-[1-[2-[7-[(1~{R},2~{R},4~{S})-2-amino-7-azabicyclo[2.2.1]heptane-7-carbonyl]-5-methoxy-3-methylimidazo [1,2-a]pyridin-2-yl]-1-(cyclopropylmethyl)pyrrolo [2,3-b]pyridin-6-yl]-2,2,2-trifluoroethyl]-2,2-dimethylpropanamide]	689
CCC(NC(C)=O)c1ccc2cc(-c3nc4cc(C(=O)N5CCC[C@@H](N)C5)cc(OC)n4c3C)n(CC3CC3)c2n1 (stereo partly drawn) [Example 193, ~{N}-[1-[2-[7-[(3~{R})-3-aminopiperidine-1-carbonyl]-5-methoxy-3-methylimidazo [1,2-a]pyridin-2-yl]-1-(cyclopropylmethyl)pyrrolo [2,3-b]pyridin-6-yl]propyl]acetamide]	400
COc1cc(C(=O)N2CCC[C@@H](N)C2)cc2nc(-c3cc4ccc(C(NC(C)=O)C(C)C)nc4n3CC3CC3)c(C)n12 (stereo partly drawn) [Example 195, ~{N}-[1-[2-[7-[(3~{R})-3-aminopiperidine-1-carbonyl]-5-methoxy-3-methylimidazo [1,2-a]pyridin-2-yl]-1-(cyclopropylmethyl)pyrrolo [2,3-b]pyridin-6-yl]-2-methylpropyl]acetamide]	519
COc1cc(C(=O)N2[C@H]3CC[C@@H]2[C@H](N)C3)cc2nc(-c3cc4ccc([C@@H](C)NC(=O)N5CCOC[C@H]5C(F)(F)F)nc4n3CC3CC3)c(C)n12 [Example 200, (3~{S})-~{N}-[(1~{R})-1-[2-[7-[(1~{R},2~{R},4~{S})-2-amino-7-azabicyclo[2.2.1]heptane-7-carbonyl]-5-methoxy-3-methylimidazo [1,2-a]pyridin-2-yl]-1-(cyclopropylmethyl)pyrrolo [2,3-b]pyridin-6-yl]ethyl]-3-(trifluoromethyl)morpholine-4-carboxamide]	44.1
COc1cc(C(=O)N2[C@H]3CC[C@@H]2[C@H](N)C3)cc2nc(-c3cc4ccc([C@@H](C)NC(=O)N5CCO[C@@H](C)C5)nc4n3CC3CC3)c(C)n12 [Example 201, (2~{S})-~{N}-[(1~{R})-1-[2-[7-[(1~{R},2~{R},4~{S})-2-amino-7-azabicyclo[2.2.1]heptane-7-carbonyl]-5-methoxy-3-methylimidazo [1,2-a]pyridin-2-yl]-1-(cyclopropylmethyl)pyrrolo [2,3-b]pyridin-6-yl]ethyl]-2-methylmorpholine-4-carboxamide]	17.4
COc1cc(C(=O)N2[C@H]3CC[C@@H]2[C@H](N)C3)cc2nc(-c3cc4ccc([C@@H](C)NC(=O)N5CCC(C(C)(C)O)C5)nc4n3CC3CC3)c(C)n12 (stereo partly drawn) [Example 203, ~{N}-[(1~{R})-1-[2-[7-[(1~{R},2~{R},4~{S})-2-amino-7-azabicyclo[2.2.1]heptane-7-carbonyl]-5-methoxy-3-methylimidazo [1,2-a]pyridin-2-yl]-1-(cyclopropylmethyl)pyrrolo [2,3-b]pyridin-6-yl]ethyl]-3-(2-hydroxypropan-2-yl) pyrrolidine-1-carboxamide]	32.4
COc1cc(C(=O)N2[C@H]3CC[C@@H]2[C@H](N)C3)cc2nc(-c3cc4ccc([C@@H](C)NC(=O)NC5CC6(CC6)C5)nc4n3CC3CC3)c(C)n12 [Example 204, 1-[(1~{R})-1-[2-[7-[(1~{R},2~{R},4~{S})-2-amino-7-azabicyclo[2.2.1]heptane-7-carbonyl]-5-methoxy-3-methylimidazo [1,2-a]pyridin-2-yl]-1-(cyclopropylmethyl)pyrrolo [2,3-b]pyridin-6-yl]ethyl]-3-spiro[2.3]hexan-5-ylurea]	30.1
COc1cc(C(=O)N2[C@H]3CC[C@@H]2[C@H](N)C3)cc2nc(-c3cc4ccc([C@@H](C)NC(=O)N5CC(OC(F)F)C5)nc4n3CC3CC3)c(C)n12 [Example 205, ~{N}-[(1~{R})-1-[2-[7-[(1~{R},2~{R},4~{S})-2-amino-7-azabicyclo[2.2.1]heptane-7-carbonyl]-5-methoxy-3-methylimidazo [1,2-a]pyridin-2-yl]-1-(cyclopropylmethyl)pyrrolo [2,3-b]pyridin-6-yl]ethyl]-3-(difluoromethoxy)azetidine-1-carboxamide]	34.8

Results, then the compound that gave them:

IC50 [nM]	SMILES
300	COc1cc(C(=O)N2CCC[C@@H](N)C2)cc2nc(-c3cc4ccc([C@@H](C)N(C)C(C)=O)nc4n3CC3CC3)c(C)n12 [Example 187, ~{N}-[(1~{R})-1-[2-[7-[(3~{R})-3-aminopiperidine-1-carbonyl]-5-methoxy-3-methylimidazo [1,2-a]pyridin-2-yl]-1-(cyclopropylmethyl)pyrrolo [2,3-b]pyridin-6-yl]ethyl]-~{N}-methylacetamide]
67.3	COc1cc(C(=O)N2C[C@H](N)[C@@H]3CC[C@H]2C3)cc2nc(-c3cc4ccc([C@@H](C)NC(=O)C56CC(F)(C5)C6)nc4n3CC3CC3)c(C)n12 [Example 189, N—((R)-1-(2-(7-((1S,4R,5R)-4-amino-2-azabicyclo[3.2.1]octane-2-carbonyl)-5-methoxy-3-methylimidazo[1,2-a]pyridin-2-yl)-1-(cyclopropylmethyl)-1H-pyrrolo[2,3-b]pyridin-6-yl)ethyl)-3-fluorobicyclo[1.1.1]pentane-1-carboxamide]
1090	COc1cc(C(=O)N2CCC[C@@H](N)C2)cc2nc(-c3cc4ccc(C(NC(C)=O)C5CC5)nc4n3CC3CC3)c(C)n12 (stereo partly drawn) [Example 194, N-((2-(7-((R)-3-aminopiperidine-1-carbonyl)-5-methoxy-3-methylimidazo[1,2-a]pyridin-2-yl)-1-(cyclopropylmethyl)-1H-pyrrolo[2,3-b]pyridin-6-yl)(cyclopropyl)methyl)acetamide]
29.3	COc1cc(C(=O)N2[C@H]3CC[C@@H]2[C@H](N)C3)cc2nc(-c3cc4ccc([C@@H](C)NC(=O)N5C[C@H]6OCC[C@H]65)nc4n3CC3CC3)c(C)n12 [Example 196, (1~{R},5~{R})-~{N}-[(1~{R})-1-[2-[7-[(1~{R},2~{R},4~{S})-2-amino-7-azabicyclo[2.2.1]heptane-7-carbonyl]-5-methoxy-3-methylimidazo [1,2-a]pyridin-2-yl]-1-(cyclopropylmethyl)pyrrolo [2,3-b]pyridin-6-yl]ethyl]-2-oxa-6-azabicyclo [3.2.0]heptane-6-carboxamide]
41.3	COc1cc(C(=O)N2[C@H]3CC[C@@H]2[C@H](N)C3)cc2nc(-c3cc4ccc([C@@H](C)NC(=O)N5CC(O)(C(F)(F)F)C5)nc4n3CC3CC3)c(C)n12 [Example 197, ~{N}-[(1~{R})-1-[2-[7-[(1~{R},2~{R},4~{S})-2-amino-7-azabicyclo[2.2.1]heptane-7-carbonyl]-5-methoxy-3-methylimidazo [1,2-a]pyridin-2-yl]-1-(cyclopropylmethyl)pyrrolo [2,3-b]pyridin-6-yl]ethyl]-3-hydroxy-3-(trifluoromethyl)azetidine-1-carboxamide]
185	COc1cc(C(=O)N2[C@H]3CC[C@@H]2[C@H](N)C3)cc2nc(-c3cc4ccc([C@@H](C)NC(=O)Nc5ccc(F)cc5F)nc4n3CC3CC3)c(C)n12 [Example 198, 1-[(1~{R})-1-[2-[7-[(1~{R},2~{R},4~{S})-2-amino-7-azabicyclo[2.2.1]heptane-7-carbonyl]-5-methoxy-3-methylimidazo [1,2-a]pyridin-2-yl]-1-(cyclopropylmethyl)pyrrolo [2,3-b]pyridin-6-yl]ethyl]-3-(2,4-difluorophenyl)urea]
35.4	COc1cc(C(=O)N2[C@H]3CC[C@@H]2[C@H](N)C3)cc2nc(-c3cc4ccc([C@@H](C)NC(=O)N5CCOC[C@@H]5C(F)(F)F)nc4n3CC3CC3)c(C)n12 [Example 199, (3~{R})-~{N}-[(1~{R})-1-[2-[7-[(1~{R}, 2~{R},4~{S})-2-amino-7-azabicyclo[2.2.1]heptane-7-carbonyl]-5-methoxy-3-methylimidazo [1,2-a]pyridin-2-yl]-1-(cyclopropylmethyl)pyrrolo [2,3-b]pyridin-6-yl]ethyl]-3-(trifluoromethyl)morpholine-4-carboxamide]
52	COc1cc(C(=O)N2[C@H]3CC[C@@H]2[C@H](N)C3)cc2nc(-c3cc4ccc([C@@H](C)NC(=O)N5CC(OC(F)(F)F)C5)nc4n3CC3CC3)c(C)n12 [Example 202, ~{N}-[(1~{R})-1-[2-[7-[(1~{R},2~{R},4~{S})-2-amino-7-azabicyclo[2.2.1]heptane-7-carbonyl]-5-methoxy-3-methylimidazo [1,2-a]pyridin-2-yl]-1-(cyclopropylmethyl)pyrrolo [2,3-b]pyridin-6-yl]ethyl]-3-(trifluoromethoxy)azetidine-1-carboxamide]
